Data: US20110082177A1, “N'-NITROXYALKYLNICOTINAMIDES FOR THE TREATMENT OF CARDIOVASCULAR DISEASES” (priority 2008, published 2011)

Tests used:
[1] = system: ATP-dependent potassium channels; test: Effect of potassium channel inhibitor GLB on vasodilatating activity in isolated rat aortal rings
Protocol: (§1) The vasodilating effect of MNIC^+Cl^− in aqueous solutions on isolated rat aorta was studied in the conditions close to physiological ones. 3-5 mm aortal rings with preserved endothelial function placed in a set of 6 containers a 5 ml containing the Krebs-Henseleit buffer constantly aerated with 5% CO2 in O2 and thermostated at 37° C. were suspended between two hooks connected to the force transducer for recording the ring contraction. Then, following the constriction induced by phenylephrine, the concentration-dependent vasodilating effect of MNIC^+Cl^− was investigated by measurement of relaxation of phenylephrine contracted aortal rings.
(§2) The experiments explaining the mechanisms responsible for vasodilation induced by MNIC^+Cl^− were carried out in the same system of isolated vascular vessels. In order to determine the contribution of sGC and KATP channels in the vasodilating activity of the compound, the effects of an inhibitor of ATP-dependent potassium channels—glibenclamide (GLB) at a concentration of 10 μM, and an inhibitor of soluble guanyl cyclase (sGC) 1H-[1,2,4]-oxadiazole[4,3-a]quinoxalin-1-one (ODQ) at a concentration of 10 μM on this vasodilating activity were investigated in two set of experiments. In these experiments, MNIC^+Cl^− was used at the concentrations causing about 80-90% vasodilation, as determined in the experiment described above. […]

[2] = Scavenging of the hydrated electron by pulse radiolysis; assay type: physicochemical; conditions: no heparin added, λ=720 nm
Protocol: The experiment consisted in studying the effect of the presence of heparin on the observed rate of scavenging the hydrated electron by the MNIC^+ cation. The studies were carried out by pulse radiolysis, using an Elektronika ELU-6E linear electron accelerator (at the Institute of Applied Radiation Chemistry, Technical University of Lodz, Poland) having an electron beam energy of 6-8 MeV, as an ionising-radiation source. A solution of water-soluble heparin at a concentration of 10 μM was used in the experiment. […] Based on the recorded kinetic traces of decay of the hydrated electron in the presence of the MNIC^+Cl^− solutions at various concentrations, the values of the pseudo-first order rate constants were determined. The value of the second-order rate constant for the investigated reaction was determined from the slope of the linear dependence of the above-determined rate constants versus concentration. […] Then, based on the determined second-order reaction rate constant and the observed rate constant for decay of the hydrated electron in the presence of heparin and MNIC^+, the degree of binding of the tested compound to heparin was determined using the following relationship: […]

[3] = Ability to release NO by EPR method; conditions: preliminary investigations
Protocol: Preliminary investigations of the ability of MNIC^+Cl^− to release NO were also performed using EPR (Electron Paramagnetic Resonance) method. The results of these studies confirmed that MNIC^+Cl^− releases NO, and most likely the vasodilating activity of the compound is a consequence of the stimulation of sGC by NO thus released.

[4] = Binding to heparin, radiation method (pulse radiolysis); conditions: water-soluble heparin 10 μM
Protocol: The experiment consisted in studying the effect of the presence of heparin on the observed rate of scavenging the hydrated electron by the MNIC^+ cation. The studies were carried out by pulse radiolysis, using an Elektronika ELU-6E linear electron accelerator (at the Institute of Applied Radiation Chemistry, Technical University of Lodz, Poland) having an electron beam energy of 6-8 MeV, as an ionising-radiation source. A solution of water-soluble heparin at a concentration of 10 μM was used in the experiment. […]
Based on the recorded kinetic traces of decay of the hydrated electron in the presence of the MNIC^+Cl^− solutions at various concentrations, the values of the pseudo-first order rate constants were determined. The value of the second-order rate constant for the investigated reaction was determined from the slope of the linear dependence of the above-determined rate constants versus concentration. […] Then, based on the determined second-order reaction rate constant and the observed rate constant for decay of the hydrated electron in the presence of heparin and MNIC^+, the degree of binding of the tested compound to heparin was determined using the following relationship: […]

[5] = Binding to heparin, absorption method; conditions: compound 100 μM, heparin immobilised on Sepharose 25 mg/ml
Protocol: The absorption method consisted in comparing the absorption spectrum of an aqueous solution of the tested compound with the absorption spectrum of the same solution after its incubation with Sepharose immobilised heparin as a glycosaminoglycan mimicking the glycosaminoglycan receptor. The absorption spectra were recorded using a Perkin Elmer Lambda 40 spectrophotometer. The following reagents were prepared prior to the experiment: an aqueous solution of the tested compound of Example 1, namely 1-methyl-N′-(2-nitroxyethyl)nicotinamide chloride (MNIC^+Cl^−), at a concentration of 100 μM, an aqueous suspension of heparin immobilised on Sepharose at 25 mg/ml, and a solution of MNIC^+Cl^− in an aqueous suspension of heparin having the same concentrations in both the tested compound and heparin as mentioned above. Following the initial incubation of the solution of the tested compound with heparin, it was centrifuged for 6 minutes at 13,000 rpm. Then supernatant solutions above the precipitate of heparin were separated and the spectra of the solutions were recorded at the wavelength range of 200-600 nm.
The degree of binding of MNIC^+ to heparin was determined by calculating the areas under the absorption curves of the compound before and after contact with heparin, using the following relationship: […]

isolated rat aorta = test: Vasodilating effect on phenylephrine contracted isolated rat aortal rings; conditions: isolated rat aorta with preserved endothelial function; concentrations range from tens to hundreds μmol/l
Protocol: as §1

[6] = system: soluble guanyl cyclase (sGC); test: Effect of sGC inhibitor ODQ on vasodilatating activity in isolated rat aortal rings
Protocol: as §1, §2

Structure (SMILES) | effect of addition of GLB after ODQ pre-incubation on reversal of the ODQ effect ([1]; GLB 10 μM added after ODQ 10 μM) | effect of pre-incubation with GLB on vasodilatating activity ([1]; GLB 10 μM, MNIC+Cl− at concentrations causing about 80-90% vasodilation) | second-order rate constant for the reaction of hydrated electron with the MNIC+ cation [2] | ability to release NO [3] | degree of binding to heparin [4] | degree of binding to heparin [5] | vasodilating activity (relaxation of phenylephrine contracted aortal rings) (isolated rat aorta) | effect of further addition of ODQ after GLB pre-incubation on vasodilatating activity ([6]; ODQ 10 μM added after GLB 10 μM) | effect of pre-incubation with ODQ on vasodilatating activity ([6]; ODQ 10 μM, MNIC+Cl− at concentrations causing about 80-90% vasodilation)
C[n+]1cccc(C(=O)NCCO[N+](=O)[O-])c1.[Cl-] [MNIC^+Cl^−, 1-Methyl-N′-(2-nitroxyethyl)nicotinamide chloride] | no further influence | had no influence | 4.17e+10 to 1e+11 M⁻¹ s⁻¹ | releases NO | 47% | 30% | concentration-dependent vasodilating activity | inhibition of vasodilatating activity | inhibited vasodilatating activity
C[n+]1cccc(C(N)=O)c1 [1-methylnicotinamide, reference compound] | – | – | – | – | 39% | 50% | – | – | –
